Read-outs that look alike come from different tables or passages of the source.
How the values were obtained:
[1] = molecular target: PARP1 (Homo sapiens, UniProt P09874); assay: PARP1-DNA enzymatic trapping assay; format: biochemical; settings: 10 nM PARP1, 5 nM DNA probe, 2 mM NAD+, fluorescence polarization read at 30 minutes
Protocol: Enzymatic trapping assay is to measure the dissociation process of PARP1 from fluorescein-labeled DNA during the enzymatic activity. Assay was conducted at a total 10 μL of reaction volume, including 10 nM PARP1 and 5 nM DNA probe in the binding buffer (50 mM Tris-HCl pH 8.0, 50 mM NaCl, 1 mM MgCl2, 0.1 mM EDTA, and 0.01% IGEPAL), and was commenced by adding a final concentration of 2 mM NAD+ substrate.
PARP1 Poly-ADP ribosylation (PARylation) inhibitory assay was conducted with compounds dissolved in DMSO at a starting concentration of 5 μM. Dissolved compounds were added to 384-well microplate and premixed with PARPI enzyme and DNA probe for 20 minutes incubation. Enzymatic reactions were started by adding NAD+ to mixture, and each well was read at 30 minutes by microplate reader (VICTOR Nivo®, PerkinElmer) to detect the fluorescence polarization signal at 480 nm excitation/530 nm dual emission.
All measured IC50 values were calculated using four parameters dose-response inhibition model in GraphPad Prism 8.0.2 (La Jolla, California, USA, www.graphpad.com).

[2] = test system: DLD1 BRCA2−/− cells; assay: Cell proliferation assay (DLD1 BRCA2−/−); format: cell-based; settings: at least 7 days, Cell-Titer Glo, read-out: DLD1 BRCA2−/− anti-proliferation assay
Protocol: (§1) For PARPi sensitivity, exponentially growing MDA-MB-436 and DLD1 BRCA2^−/− cells were seed in 96 or 384-well plates at very low density with the goal of not splitting for at least 7 days (typically 0.3k-1.2k cells/well). Cells were plated on […] and treated with DMSO or increasing concentrations of PARP1 inhibitors on Day 0. At the end of the experiment, cell viability was estimated using Cell-Titer Glo (Promega).

[3] = test system: MDA-MB-436 cells; assay: Cell proliferation assay (MDA-MB-436); format: cell-based; settings: at least 7 days, Cell-Titer Glo, read-out: MDA-MB-436 anti-proliferation assay
Protocol: as §1

[4] = Homo sapiens, MDA-MB-436, 168 h

Chain of PARP1 (P09874 whole entry): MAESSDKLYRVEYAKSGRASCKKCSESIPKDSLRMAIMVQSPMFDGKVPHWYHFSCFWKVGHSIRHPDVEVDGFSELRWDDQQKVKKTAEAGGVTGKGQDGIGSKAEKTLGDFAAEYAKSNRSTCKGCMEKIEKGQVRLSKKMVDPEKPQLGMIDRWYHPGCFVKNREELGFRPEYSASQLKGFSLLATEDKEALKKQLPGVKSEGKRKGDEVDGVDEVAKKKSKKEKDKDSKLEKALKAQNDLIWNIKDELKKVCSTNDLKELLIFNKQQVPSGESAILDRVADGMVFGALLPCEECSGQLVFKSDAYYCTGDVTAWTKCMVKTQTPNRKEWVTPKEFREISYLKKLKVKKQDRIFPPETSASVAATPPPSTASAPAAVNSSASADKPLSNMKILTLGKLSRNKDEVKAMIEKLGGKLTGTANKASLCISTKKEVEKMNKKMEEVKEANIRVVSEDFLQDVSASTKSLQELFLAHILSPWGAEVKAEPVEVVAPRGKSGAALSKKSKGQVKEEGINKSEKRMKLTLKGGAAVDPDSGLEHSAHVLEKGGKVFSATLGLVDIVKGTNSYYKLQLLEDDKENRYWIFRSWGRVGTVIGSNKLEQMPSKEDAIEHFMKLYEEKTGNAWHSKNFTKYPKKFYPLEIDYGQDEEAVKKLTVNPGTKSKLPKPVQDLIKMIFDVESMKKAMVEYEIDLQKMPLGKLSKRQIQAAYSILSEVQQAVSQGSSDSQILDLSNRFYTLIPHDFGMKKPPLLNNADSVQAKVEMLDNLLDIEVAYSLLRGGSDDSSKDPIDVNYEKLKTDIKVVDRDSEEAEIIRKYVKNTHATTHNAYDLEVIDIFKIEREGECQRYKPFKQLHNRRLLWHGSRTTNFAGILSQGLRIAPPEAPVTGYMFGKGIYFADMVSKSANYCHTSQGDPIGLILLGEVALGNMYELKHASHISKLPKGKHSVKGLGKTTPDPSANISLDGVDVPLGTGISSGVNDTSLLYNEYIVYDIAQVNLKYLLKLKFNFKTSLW

Row | IC50 [1] [nM] | IC50 ([2]; Homo sapiens, DLD-1, 168 h) [nM] | IC50 [3, 4] [nM] | IC50 [3] [nM] | IC50 [2] [nM] | Compound
1 | 16.6 | 4.12 | 3.47 | – | – | Cc1cc2ncc(CN3C[C@H]4CN(c5ccc(C(=O)NC6CC6)nc5)C[C@@H]4C3)cc2[nH]c1=O (racemic) [Compound 20]
2 | 10.8 | 1.29 | – | 1.76 | – | CCc1cc2ncc(CN3C[C@H]4CN(c5ccc(C(=O)NC)nc5)C[C@@H]4C3)cc2[nH]c1=O [Compound 9]
3 | 9.73 | – | – | 3.93 | 5.02 | CCc1cc2ncc(CN3C[C@H]4CN(c5ccc(C(=O)NC)nc5F)C[C@@H]4C3)cc2[nH]c1=O [Compound 28]
4 | 101 | 141 | 7.29 | – | – | CNC(=O)c1ccc(N2C[C@H]3CN(Cc4cc5[nH]c(=O)c6c(c5cn4)COC6)C[C@@H]3C2)c(F)n1 [Compound 63]
5 | 5.17 | 1.35 | 0.37 | – | – | O=C(NC1COC1)c1ccc(N2C[C@H]3CN(Cc4cc5[nH]c(=O)c6c(c5cn4)CCC6)C[C@@H]3C2)c(F)n1 [Compound 59]
6 | 5.17 | 3.37 | 0.71 | – | – | O=C(N[C@@H]1CCOC1)c1ccc(N2C[C@H]3CN(Cc4cc5[nH]c(=O)c6c(c5cn4)CCC6)C[C@@H]3C2)c(F)n1 [Compound 56]
7 | 323 | > 500 | > 500 | – | – | CNC(=O)c1ccc(N2C[C@@H]3CN(Cc4ccc5nc(C)c(=O)[nH]c5c4F)C[C@H]3C2)c(F)n1 [Compound 11]
8 | 26.7 | 9.14 | 1.41 | – | – | CNC(=O)c1ccc(N2C[C@H]3CN(Cc4ccc5c6c(c(=O)[nH]c5c4)CCOC6)C[C@@H]3C2)cn1 [Compound 78]
9 | 10.9 | 0.87 | 0.59 | – | – | CNC(=O)c1ccc(N2C[C@H]3CN(Cc4cnc5cc(C)c(=O)[nH]c5c4)C[C@@H]3C2)c(F)n1 [Compound 29]
10 | 4.32 | 8.28 | 1.08 | – | – | O=C(NC1COC1)c1ccc(N2C[C@H]3CN(Cc4ccc5c6c(c(=O)[nH]c5c4)OCCC6)C[C@@H]3C2)c(F)n1 [Compound 89]
11 | 42.9 | > 500 | 410 | – | – | CCc1cc2ncc(CN3C[C@@H]4CN(c5ccc(C(=O)NC)nc5)C[C@@H]4C3)cc2[nH]c1=O [Compound 1]
12 | 8.35 | 1.49 | 0.98 | – | – | CNC(=O)c1ccc(N2C[C@H]3CN(Cc4ccc5nc(C)c(=O)[nH]c5c4)C[C@@H]3C2)c(F)n1 [Compound 31]
13 | 9.14 | 7.97 | 1.35 | – | – | O=C(NC1COC1)c1ccc(N2C[C@H]3CN(Cc4ccc5c6c(c(=O)[nH]c5c4)COC6)C[C@@H]3C2)c(F)n1 [Compound 61]
14 | 7.9 | 4.56 | 1.42 | – | – | CNC(=O)c1ccc(N2C[C@H]3CN(Cc4ccc5c6c(c(=O)[nH]c5c4)OCCC6)C[C@@H]3C2)c(F)n1 [Compound 88]
15 | 5.99 | 1.6 | 0.69 | – | – | CCc1cc2ncc(CN3C[C@H]4CN(c5ccc(C(=O)NCCOC)nc5)C[C@@H]4C3)cc2[nH]c1=O (racemic) [Compound 26]
16 | 7.81 | 4.13 | 2.48 | – | – | CNC(=O)c1ccc(N2C[C@H]3CN(Cc4cnc5cc(OC)c(=O)[nH]c5c4)C[C@@H]3C2)c(F)n1 [Compound 33]
17 | 7.82 | 5.86 | 1.53 | – | – | CNC(=O)c1ccc(N2C[C@H]3CN(Cc4cnc5c6c(c(=O)[nH]c5c4)COC6)C[C@@H]3C2)c(F)n1 [Compound 62]

Row | IC50 [1] [nM] | IC50 ([2]; Homo sapiens, DLD-1, 168 h) [nM] | IC50 [3, 4] [nM] | IC50 [3] [nM] | IC50 [2] [nM] | Compound
18 | 6.13 | – | – | 0.59 | 0.59 | CCc1cc2ncc(CN3C[C@H]4CN(c5ccc(C(=O)NC)nc5F)C[C@@H]4C3)cc2[nH]c1=O (racemic) [Compound 19]
19 | 13.5 | 5.98 | 4.63 | – | – | CCc1nc2ncc(CN3C[C@@H]4CN(c5ccc(C(=O)NC)nc5F)C[C@H]4C3)cc2[nH]c1=O [Compound 37]
20 | 5.16 | 8.3 | 1.74 | – | – | CO[C@H]1C[C@@H](NC(=O)c2ccc(N3C[C@H]4CN(Cc5ccc6c7c(c(=O)[nH]c6c5)OCCC7)C[C@@H]4C3)c(F)n2)C1 [Compound 90]
21 | 14.6 | 12.3 | 0.6 | – | – | COCCNC(=O)c1ccc(N2C[C@H]3CN(Cc4ccc5c6c(c(=O)[nH]c5c4)COCC6)C[C@@H]3C2)cn1 [Compound 68]
22 | 41.1 | 45.3 | 15.7 | – | – | CNC(=O)c1ccc(N2C[C@@H]3CN(Cc4ccc5nc(C)c(=O)[nH]c5c4F)C[C@H]3C2)c(F)n1 (racemic) [Compound 3]
23 | 262 | 49.3 | 76.1 | – | – | CNC(=O)c1ccc(N2C[C@@H]3CN(Cc4ccc5nc(C)c(=O)[nH]c5c4F)C[C@H]3C2)cn1 (racemic) [Compound 6]
24 | 7.68 | 12.9 | 2.51 | – | – | O=C(NC1CCOCC1)c1ccc(N2C[C@H]3CN(Cc4cc5[nH]c(=O)c6c(c5cn4)CCC6)C[C@@H]3C2)c(F)n1 [Compound 58]
25 | 17.8 | 1.76 | 1.91 | – | – | CNC(=O)c1ccc(N2C[C@@H]3CN(Cc4cnc5cc(C)c(=O)[nH]c5c4)C[C@H]3C2)c(F)n1 (racemic) [Compound 21]
26 | 47.3 | 13.9 | 5.13 | – | – | CCC1Oc2ncc(CN3C[C@H]4CN(c5ccc(C(=O)NC)nc5F)C[C@@H]4C3)cc2NC1=O (mixture of isomers) [Compound 8]
27 | > 500 | > 500 | > 500 | – | – | CCC1Oc2ncc(CN3C[C@H]4CN(c5ccc(C(=O)NC6CC6)nc5)C[C@@H]4C3)cc2NC1=O (mixture of isomers) [Compound 16]
28 | 7.6 | 4.66 | 1.05 | – | – | CNC(=O)c1ccc(N2C[C@H]3CN(Cc4cnc5c6c(c(=O)[nH]c5c4)OCCC6)C[C@@H]3C2)c(F)n1 [Compound 81]
29 | 8.26 | 4.98 | 0.57 | – | – | CO[C@H]1C[C@H](NC(=O)c2ccc(N3C[C@H]4CN(Cc5cnc6c7c(c(=O)[nH]c6c5)COCC7)C[C@@H]4C3)c(F)n2)C1 [Compound 74]
30 | 6.96 | 4.66 | 1.24 | – | – | COCCNC(=O)c1ccc(N2C[C@H]3CN(Cc4cc5[nH]c(=O)c6c(c5cn4)CCC6)C[C@@H]3C2)c(F)n1 [Compound 55]
31 | 10.5 | 1.09 | 0.78 | – | – | CCc1cc2ncc(CN3C[C@@H]4CN(c5ccc(C(=O)NCCOC)nc5F)C[C@H]4C3)cc2[nH]c1=O [Compound 34]
32 | 33.1 | – | – | 9.85 | 5.59 | CCC1Oc2ncc(CN3C[C@H]4CN(c5ccc(C(=O)NC)nc5)C[C@@H]4C3)cc2NC1=O (mixture of isomers) [Compound 14]
33 | 24.8 | 4.63 | 2.59 | – | – | CNC(=O)c1ccc(N2C[C@@H]3CN(Cc4cnc5c(c4)NC(=O)[C@@H]4CCCN54)C[C@H]3C2)cn1 (racemic) [Compound 7]
34 | 411 | – | – | – | – | O=C(NC1COC1)c1ccc(N2C[C@H]3CN(Cc4ccc5c6c(c(=O)[nH]c5c4)COCC6)C[C@@H]3C2)c(Cl)n1 [Compound 84]
